Test results from patent US20240376051A1, “CRYSTALLINE FORM OF PYRROLE AMIDE COMPOUND, PREPARATION METHOD THEREFOR AND USE THEREOF” (SUNSHINE LAKE PHARMA CO., LTD., priority 2021, published 2024).
Where two headings read alike, the source gives them in different places.

Tests used:
[1] = Stability experiment: light test; format: physicochemical; settings: for Appearance / Total impurity %: 25°C, white light 4990 lux; for Total impurity %: HPLC
Protocol: (§1) Test samples: crystalline form I was prepared by referring to any method of Example 2, and amorphous form was prepared by referring to Example 1.
• (3) Light test: an appropriate amount of the test sample was taken into a flat weighing bottle, spread into a thin layer with a thickness of ≤5 mm. The samples were placed in a light box (with a UV lamp) and placed under the conditions of 25° C., white light 4990 lux, and UV 1.4 W·h/m^2 for 30 days. The samples were taken for testing on the 5th, 10th, and 30th day. The color change of the samples was observed. The purity of the samples was determined by HPLC.

[2] = Stability experiment: high humidity test; format: physicochemical; settings: for Appearance / Total impurity %: 25°C, RH 90%±5%; for Total impurity %: HPLC
Protocol: as §1
(§2) • (2) High humidity test: an appropriate amount of the test sample was taken into a flat weighing bottle, spread into a thin layer with a thickness of ≤5 mm. The samples were placed at 25° C. and RH for 90%±5% for 30 days. The samples were taken for testing according to the key stability inspection items on the 5th, 10th, and 30th day. The color change of the samples was observed. The purity of the samples was determined by HPLC.

[3] = Hygroscopicity experiment (dynamic moisture adsorption, DVS); format: physicochemical; settings: for The hygroscopicity feature: Chinese Pharmacopoeia 2020 definition, 25°C±1°C, 80%±2% relative humidity; for Weight gain at 60% relative humidity/% / Weight gain at 80% relative humidity/% / Weight gain at 95% relative humidity/%: DVS, 25°C
Protocol: The hygroscopicity of the present invention was measured by a DVS INT-Std dynamic moisture and gas adsorption analyzer from Surface Measurement Systems, UK. The humidity test range: 0%-95%, air flow: 200 mL/min, temperature: 25° C., test point: every 5% increase in humidity to take a test point.
Test samples: crystalline form I prepared by referring to any method of Example 2, and amorphous form prepared by referring to Example 1.
An appropriate amount of the test sample was taken, and the hygroscopicity was tested by a dynamic moisture adsorption device. The description of the hygroscopicity feature and the definition of the hygroscopicity gain (Chinese Pharmacopoeia 2020 edition. Appendix 9103 Guidelines for drug dampness test, experimental, conditions: 25° C.±1° C. 80%±2% relative humidity) as described in Table 6 below: […]

[4] = Stability experiment: high temperature test; format: physicochemical; settings: for Appearance / Total impurity %: 60°C±2°C; for Total impurity %: HPLC
Protocol: as §1
as §2, with “The following tests of test samples were carried out: •” for “•”, “(1)” for “(2)”, “temperature” for “humidity”, “60° C.±2°” for “25°”, “C.” for “C. and RH for 90%±5%”

[5] = Pharmacokinetic experiment, oral capsule in Beagle dogs; format: in vivo; settings: 5 mg/kg; for AUClast / Cmax / Tmax: male Beagle dogs
Protocol: The crystalline form I prepared by referring to any method of Example 2 was filled into capsules, which are used for oral administration.
8-12 kg Male Beagle dogs were divided into 2 groups, and 3 in each group. Each Beagle dog was orally administered the capsule containing the test sample at a dose of 5 mg/kg, and blood was collected at time points of 0.25, 0.5, 1.0, 2.0, 4.0, 6.0, 8.0 and 24 hours. Standard curve was plotted based on concentrations of the samples in a suitable range, the concentration of the test sample in the plasma sample was measured and quantified by AB SCIEX API4000 LC-MS/MS at MRM mode. Pharmacokinetic parameters were calculated according to drug concentration-time curve using a noncompartmental method by WinNonLin 6.3 software.
A pharmacokinetic experiment of the amorphous form prepared with reference to Example 1 was carried out according to the above method, and the results are shown in Table 1.

[6] = Stability experiment: accelerated test; format: physicochemical; settings: for Total impurity % / Appearance: 40±2°C/75%±5% RH; for Total impurity %: HPLC; for Appearance: PE package plus aluminum foil
Protocol: as §1
• (4) Accelerated test: an appropriate amount of crystalline form I test samples in a single-layer PE package plus aluminum foil packaging was stored for 6 months under the conditions of 40±2° C./75%±5% RH. Samples were taken for testing in the 1st, 2nd, 3rd and 6th month. The color change of the samples was observed. The purity of the samples was determined by HPLC.

## Cc1c(C(=O)Nc2ccc(S(C)(=O)=O)c(F)c2)cn(CCO)c1-c1ccccc1C(F)(F)F [Amorphous form, (S)-1-(2-hydroxyethyl)-4-methyl-N-(3-fluoro-4-(methylsulfonyl)phenyl)-5-(2-(trifluoromethyl)phenyl)-1H-pyrrole-3-carboxamide]
[1]; UV 1.4 W·h/m^2, 0 day
  Appearance: Off-white
  Total impurity %: 0.40%
[1]; UV 1.4 W·h/m^2, 5 days
  Total impurity %: 0.85%
[1]; UV 1.4 W·h/m^2, 10 days
  Total impurity %: 1.79%
[1]; UV 1.4 W·h/m^2, 30 days
  Total impurity %: 3.47%
[2]; 0 day
  Appearance: Off-white
  Total impurity %: 0.40%
[2]; 5 days
  Appearance: Off-white
  Total impurity %: 0.47%
[2]; 10 days
  Appearance: Off-white
  Total impurity %: 0.53%
[2]; 30 days
  Appearance: Off-white
  Total impurity %: 0.57%
[3]
  The hygroscopicity feature: slight hygroscopicity
  Weight gain at 60% relative humidity/%: 1.401%
  Weight gain at 80% relative humidity/%: 1.826%
  Weight gain at 95% relative humidity/%: 2.707%
[4]; 0 day
  Appearance: Off-white
  Total impurity %: 0.40%
[4]; 5 days
  Appearance: Off-white
  Total impurity %: 0.46%
[4]; 10 days
  Appearance: Off-white
  Total impurity %: 0.55%
[4]; 30 days
  Appearance: Off-white
  Total impurity %: 1.28%
[5]
  AUClast: 20900 ng·h/mL
  Cmax: 913 ng/mL
  Tmax: 3.33 h

## Cc1c(C(=O)Nc2ccc(S(C)(=O)=O)c(F)c2)cn(CCO)c1-c1ccccc1C(F)(F)F [Crystalline form I, (S)-1-(2-hydroxyethyl)-4-methyl-N-(3-fluoro-4-(methylsulfonyl)phenyl)-5-(2-(trifluoromethyl)phenyl)-1H-pyrrole-3-carboxamide]
[6]; 0 day
  Total impurity %: 0.78%
  Appearance: White
[6]; 1 month
  Total impurity %: 0.72%
  Appearance: White
[6]; 2 months
  Total impurity %: 0.73%
  Appearance: White
[6]; 3 months
  Total impurity %: 0.73%
  Appearance: White
[6]; 6 months
  Total impurity %: 0.71%
  Appearance: White
[6]; accelerated test conditions, 6 months
  change of appearance and purity: do not change significantly
[1]; UV 1.4 W·h/m^2, 0 day
  Appearance: White
  Total impurity %: 0.34%
[1]; UV 1.4 W·h/m^2, 5 days
  Appearance: White
  Total impurity %: 0.34%
[1]; UV 1.4 W·h/m^2, 10 days
  Appearance: White
  Total impurity %: 0.32%
[1]; UV 1.4 W·h/m^2, 30 days
  Appearance: White
  Total impurity %: 0.49%
[1]; light, 30 days
  change of appearance and purity: no obvious changes
[2]; 0 day
  Appearance: White
  Total impurity %: 0.34%
[2]; 5 days
  Appearance: White
  Total impurity %: 0.35%
[2]; 10 days
  Appearance: White
  Total impurity %: 0.36%
[2]; 30 days
  Appearance: White
  Total impurity %: 0.34%
[2]; high humidity (25°C, RH 90%±5%), 30 days
  change of appearance and purity: no obvious changes
[3]
  The hygroscopicity feature: no or almost no hygroscopicity
  Weight gain at 60% relative humidity/%: 0.120%
  Weight gain at 80% relative humidity/%: 0.185%
  Weight gain at 95% relative humidity/%: 0.304%
[4]; 0 day
  Appearance: White
  Total impurity %: 0.34%
[4]; 5 days
  Appearance: White
  Total impurity %: 0.36%
[4]; 10 days
  Appearance: White
  Total impurity %: 0.34%
[4]; 30 days
  Appearance: White
  Total impurity %: 0.34%
[4]; high temperature (60°C), 30 days
  change of appearance and purity: no obvious changes
[5]; Beagle dogs
  exposure and blood drug concentration compared with the amorphous form: higher exposure and blood drug concentration than the amorphous form
[5]
  AUClast: 42300 ng·h/mL
[5]; male, Beagle, dog, plasma, po, read-out: Cmax
  Cmax: 1450 ng/mL
[5]; male, Beagle, dog, plasma, po, read-out: Tmax
  Tmax: 4 h
